Experimental data as given in BindingDB's records for doi:10.1021/ml400413c (Dart Neuroscience, 2013).

Legend:
[1] = target: T1, Peroxisome proliferator-activated receptor delta (Homo sapiens, UniProt Q03181); experiment: Agonist activity at human PPARdelta ligand binding domain expressed in monkey COS7 cells cotransfected with Gal4 by luciferase reporter gene assay
T1 sequence (Q03181 whole entry): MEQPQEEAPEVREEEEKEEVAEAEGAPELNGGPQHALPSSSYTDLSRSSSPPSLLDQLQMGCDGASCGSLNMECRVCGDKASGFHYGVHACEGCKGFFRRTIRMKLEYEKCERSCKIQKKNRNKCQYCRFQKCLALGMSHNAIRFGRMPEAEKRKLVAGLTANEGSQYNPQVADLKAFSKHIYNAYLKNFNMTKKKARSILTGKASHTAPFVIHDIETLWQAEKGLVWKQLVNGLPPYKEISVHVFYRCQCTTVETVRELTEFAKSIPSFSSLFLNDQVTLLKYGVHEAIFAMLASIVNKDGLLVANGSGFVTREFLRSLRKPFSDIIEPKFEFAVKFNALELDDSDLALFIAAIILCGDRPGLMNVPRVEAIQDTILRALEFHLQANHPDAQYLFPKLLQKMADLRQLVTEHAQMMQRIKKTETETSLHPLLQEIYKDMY

[2] = target: T2, Peroxisome proliferator-activated receptor gamma (Homo sapiens, UniProt P37231); experiment: Agonist activity at human PPARgamma ligand binding domain expressed in monkey COS7 cells cotransfected with Gal4 by luciferase reporter gene assay
T2 sequence (P37231 whole entry): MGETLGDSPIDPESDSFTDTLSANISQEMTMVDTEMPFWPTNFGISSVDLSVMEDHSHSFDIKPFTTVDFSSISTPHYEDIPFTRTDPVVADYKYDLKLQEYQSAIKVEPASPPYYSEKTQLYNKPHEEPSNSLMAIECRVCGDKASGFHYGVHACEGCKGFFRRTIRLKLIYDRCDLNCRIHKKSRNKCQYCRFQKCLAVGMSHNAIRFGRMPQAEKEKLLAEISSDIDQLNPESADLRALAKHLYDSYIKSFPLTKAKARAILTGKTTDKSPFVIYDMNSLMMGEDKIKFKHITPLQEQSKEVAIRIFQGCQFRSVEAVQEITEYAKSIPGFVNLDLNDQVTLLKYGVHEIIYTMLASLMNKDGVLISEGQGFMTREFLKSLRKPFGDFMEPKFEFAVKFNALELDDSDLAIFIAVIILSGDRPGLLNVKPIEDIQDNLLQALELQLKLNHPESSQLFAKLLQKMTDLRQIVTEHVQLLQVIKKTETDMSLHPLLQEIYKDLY

`COC(c1ccc(Br)cc1)C1CC1c1cc(C)c(OC(C)(C)C(=O)O)c(C)c1` (stereo not drawn) was tested, and the EC50 [1] was 54 nM and the EC50 [2] was 19 nM.
`CCOC(c1ccc(OC(F)(F)F)cc1)C1CC1c1cc(C)c(OC(C)(C)C(=O)O)c(C)c1` (stereo not drawn) was tested, and the EC50 [2] was 39 nM.
